Measurements: patent US10780072B2, “Methods for inhibiting conversion of choline to trimethylamine (TMA)” (The Procter & Gamble Company, priority 2015, dated 2020)

Each molecule was assayed on Proteus mirabilis 29906 (Pm) lysate (assay: Inhibition of TMA formation from choline (d9-choline to d9-TMA) in Proteus mirabilis lysate, LC-MS/MS). Details: Pm lysate 1.5 mg/mL protein, 50 μM d9-choline chloride, 37° C. for two hours; read-out: TMA Inhibition (IC50, mol/L).
Format: biochemical
Molecule `CSc1ccc(N=C=S)cc1` [Compound 4, 4-(Methylthio) phenyl isothiocyanate] has an IC50 of 73.4 µM. In the case of `S=C=NCCCN1CCOCC1` [Compound 24, 3-(4-Morpholino) propyl isothiocyanate], the IC50 is reported as 15.7 µM. In the case of `CC(=O)O[C@H]1[C@H](OC(C)=O)[C@@H](N=C=S)OC[C@H]1OC(C)=O` [Compound 39, 2,3,4-Tri-O-acetyl-α-D-arabino-pyranosyl isothiocyanate], the IC50 is reported as 220 µM. In the case of `CCc1ccc(N=C=S)cc1` [Compound 31, 4-Ethylphenyl isothiocyanate], the IC50 is reported as 383 µM. Molecule `S=C=NC(c1ccccc1)c1ccccc1` [Compound 38, Benzhydryl isothiocyanate] has an IC50 of 1560 µM. `S=C=NCCN1CCCCC1` [Compound 35, 2-Piperidino-ethyl isothiocyanate] gave an IC50 of 14.3 µM. In the case of `CN(C)CCN=C=S` [Compound 42, 2-Isothio-cyanato-N,N-dimethyl-ethanamine], the IC50 is reported as 7.67 µM. `COc1cccc(N=C=S)c1` [Compound 34, 3-Methoxy-phenyl isothiocyanate] gave an IC50 of 88.3 µM. `CCN(CC)CCN=C=S` [Compound 40, Ethanamine, N,N-diethyl-2-isothio-cyanato] showed an IC50 of 8.81 µM. `S=C=NCc1ccccc1` [Compound 5, Benzyl isothiocyanate] showed an IC50 of 3.03 µM. `CCC(C)CN=C=S` (stereo not drawn) [Compound 44, Butane, 1-isothio-cyanato-2-methyl-] was tested, and the IC50 was 105 µM. With `S=C=Nc1cccc2ccccc12` [Compound 19, 1-Naphthyl isothiocyanate] the IC50 was 2080 µM. Work on `S=C=NC1CC2CCC1C2` (stereo not drawn) [Compound 29, exo-2-Norbornyl-isothiocyanate] yielded an IC50 of 48.2 µM. Methyl isothiocyanate [Compound 14] showed an IC50 of 20 µM. `S=C=NCC1CCCCC1` [Compound 8, Cyclohexyl- methyl isothiocyanate] was tested, and the IC50 was 210 µM. `Cc1cccc(N=C=S)c1` [Compound 3, m-Tolyl isothiocyanate] showed an IC50 of 248 µM. For `CC(C)(C)N=C=S` [Compound 2, tert-Butyl isothiocyanate], the IC50 was 5480 µM. In the case of `S=C=Nc1ccccc1` [Compound 18, Phenyl isothiocyanate], the IC50 is reported as 120 µM. `S=C=Nc1ccc(Br)cc1` [Compound 20, 4-Bromo-phenyl isothiocyanate] was tested, and the IC50 was 88.8 µM. With Ethyl isothiocyanate [Compound 11] the IC50 was 28.6 µM. For `O=C(N=C=S)c1ccccc1` [Compound 21, Benzoyl isothiocyanate], the IC50 was 196 µM. Work on `C[N+](C)(C)CCN=C=S` [Compound 45, 2-Isothio-cyanato-N,N,N-trimethyl-ethana-minium iodide] yielded an IC50 of 1.28 µM. With `S=C=Nc1ccc(Cl)cc1` [Compound 27, 4-Chloro-phenyl isothiocyanate] the IC50 was 108 µM. `CC(C)CCN=C=S` [Compound 16, 1-isothio-cyanato-3-methyl-butane] showed an IC50 of 66.1 µM. `CCCCCN=C=S` [Compound 6, 1-pentyl isothiocyanate] gave an IC50 of 41.4 µM. Work on `COc1ccccc1N=C=S` [Compound 32, 2-Methoxy-phenyl isothiocyanate] yielded an IC50 of 188 µM. `CC(C)(C)OC(=O)Nc1ccc(N=C=S)cc1` [Compound 23, N-Boc-4-isothio-cyanatoaniline] showed an IC50 of 2530 µM. `CC(C)(C)OC(=O)NCCCCN=C=S` [Compound 22, N-Boc-4-isothio-cyanatobutyl-amine] showed an IC50 of 65.2 µM. `CN(C)CCCN=C=S` [Compound 41, 3-isothio-cyanato-N,N-dimethyl-1-Propanamine] gave an IC50 of 11.5 µM. Work on `CCC(C)N=C=S` (stereo not drawn) [Compound 10, sec-butyl isothiocyanate] yielded an IC50 of 129 µM. In the case of `CC(C)CN=C=S` [Compound 12, Isobutyl isothiocyanate], the IC50 is reported as 74.5 µM. With `S=C=NCCc1ccc(Cl)cc1` [Compound 9, 2-(4-Chloro-phenethyl) isothiocyanate] the IC50 was 30 µM. Molecule `COc1ccc(C)cc1N=C=S` [Compound 1, 2-Methoxy-5-methylphenyl isothiocyanate] has an IC50 of 745 µM. Work on `C[C@H](N=C=S)c1ccccc1` [Compound 26, (S)-(+)-alpha- Methylbenzyl isothiocyanate] yielded an IC50 of 20.9 µM. With `CCCCN=C=S` [Compound 13, Butyl isothiocyanate] the IC50 was 50.4 µM. With `CCCCCC12CCC(C(=O)Oc3ccc(N=C=S)cc3)(CC1)CC2` [Compound 37, 4-Isothio-cyanato-phenyl 4-pentyl-bicyclo [2.2.2] octane-1-carboxylate] the IC50 was 48900 µM. Work on `COc1ccc(OC)c(N=C=S)c1` [Compound 33, 2,5-Di-methoxy-phenyl isothiocyanate] yielded an IC50 of 152 µM. `CCN(CC)CCCN=C=S` [Compound 7, 3-(Diethyl-amino) propyl isothiocyanate] was tested, and the IC50 was 1.56 µM. Molecule `S=C=NCCN1CCOCC1` [Compound 25, 2-(4-Morpholino) ethyl isothiocyanate] has an IC50 of 13.4 µM. In the case of `CC(C)N=C=S` [Compound 15, Isopropyl isothiocyanat], the IC50 is reported as 98.2 µM. Work on `CCOC(=O)CN=C=S` [Compound 36, Ethyl isothio- cyanato- acetate] yielded an IC50 of 3.98 µM. `S=C=NC1CCCCC1` [Compound 30, Cyclohexyl isothiocyanate] was tested, and the IC50 was 56.1 µM.
